Common to all, as to type: cell-based
One assay concerns S. aureus MP-12. Description: Broth dilution MIC determination (CLSI), S. aureus MP-12. The settings on record: Staphylococcus aureus, MP12; strain MP-12, broth dilution.
For the next assay, the system named is E. coli MP-4. Description: Broth dilution MIC determination (CLSI), E. coli MP-4. The settings on record: Escherichia coli, MP4; strain MP-4, broth dilution; read-out: MIC E. coli MP-4.
In another assay the test system is K. pneumoniae MP-546. The assay is described as follows: Broth dilution MIC determination (CLSI), K. pneumoniae MP-546. The settings on record: Klebsiella pneumoniae, MP546; strain MP-546, broth dilution.
The next assay concerns P. aeruginosa MP-3. The assay is described as follows: Broth dilution MIC determination (CLSI), P. aeruginosa MP-3. The settings on record: Pseudomonas aeruginosa, MP3; strain MP-3, broth dilution. For orientation: Dilution methods test growth across graded concentrations, often in twofold steps.
The test system of another assay is A. baumannii MP-15. Description: Broth dilution MIC determination (CLSI), A. baumannii MP-15. The settings on record: Acinetobacter baumannii, MP15; strain MP-15, broth dilution; read-out: MIC A. baumanii MP-15.

The term MIC denotes the lowest concentration found to suppress growth.

The structures appear in SMILES notation. Converted amounts (≈) assume the structure as drawn.

Regarding `CO[C@]1(C)C[C@@H](C)CN(C)[C@H](C2CCN(Cc3nccn3C)CC2)COC(=O)C(C)(C)C(=O)[C@H](C)[C@H]1O[C@@H]1O[C@H](C)C[C@H](N(C)C)[C@H]1O` [Compound 179, (3R,6R,8R,9R,10R)-9-(((2S,3R,4S,6R)-4-(dimethylamino)-3-hydroxy-6-methyltetrahydro-2H-pyran-2-yl)oxy)-8-methoxy-4,6,8,10,12,12-hexamethyl-3-(1-((1-methyl-1H-imidazol-2-yl)methyl)piperidin-4-yl)-1-oxa-4-azacyclotridecane-11,13-dione], the minimum inhibitory concentration (MIC) was 4 to 32 µg/mL (≈ 5.9 to 47.2 µM) with S. aureus MP-12; under 4 µg/mL with E. coli MP-4; 4 to 32 µg/mL (≈ 5.9 to 47.2 µM) in the assay on K. pneumoniae MP-546; over 32 µg/mL against P. aeruginosa MP-3; over 32 µg/mL in the assay with A. baumannii MP-15.
Consider `CO[C@]1(C)C[C@@H](C)CN(C)[C@@H]([C@H]2CCCN(C(=O)CN(C)C)C2)COC(=O)C(C)(C)C(=O)[C@H](C)[C@H]1O[C@@H]1O[C@H](C)C[C@H](N(C)C)[C@H]1O` [Compound 34, (3S,6R,8R,9R,10R)-9-(((2S,3R,4S,6R)-4-(dimethylamino)-3-hydroxy-6-methyltetrahydro-2H-pyran-2-yl)oxy)-3-((S)-1-(dimethylglycyl)piperidin-3-yl)-8-methoxy-4,6,8,10,12,12-hexamethyl-1-oxa-4-azacyclotridecane-11,13-dione], for which the MIC with S. aureus MP-12 was over 32 µg/mL; with E. coli MP-4, 4 to 32 µg/mL (≈ 5.98 to 47.8 µM); against K. pneumoniae MP-546, over 32 µg/mL; against P. aeruginosa MP-3, over 32 µg/mL; with A. baumannii MP-15 it was over 32 µg/mL.
For the compound `CO[C@]1(C)C[C@@H](C)CN(C)[C@@H]([C@H]2CNC(=O)C2)COC(=O)C(C)(C)C(=O)[C@H](C)[C@H]1O[C@@H]1O[C@H](C)C[C@H](N(C)C)[C@H]1O` [Compound 8, (3S,6R,8R,9R,10R)-9-(((2S,3R,4S,6R)-4-(dimethylamino)-3-hydroxy-6-methyltetrahydro-2H-pyran-2-yl)oxy)-8-methoxy-4,6,8,10,12,12-hexamethyl-3-((R)-5-oxopyrrolidin-3-yl)-1-oxa-4-azacyclotridecane-11,13-dione], the MIC in the assay on S. aureus MP-12 is over 32 µg/mL; with E. coli MP-4, under 4 µg/mL; in the assay with K. pneumoniae MP-546, 4 to 32 µg/mL (≈ 6.85 to 54.8 µM); against P. aeruginosa MP-3, over 32 µg/mL; in the assay with A. baumannii MP-15, over 32 µg/mL.
For `CO[C@]1(C)C[C@@H](C)CN(C)[C@H](C2CN(CC3COC3)C2)COC(=O)C(C)(C)C(=O)[C@H](C)[C@H]1O[C@@H]1O[C@H](C)C[C@H](N(C)C)[C@H]1O` [Compound 91, (3R,6R,8R,9R,10R)-9-(((2S,3R,4S,6R)-4-(dimethylamino)-3-hydroxy-6-methyltetrahydro-2H-pyran-2-yl)oxy)-8-methoxy-4,6,8,10,12,12-hexamethyl-3-(1-(oxetan-3-ylmethyl)azetidin-3-yl)-1-oxa-4-azacyclotridecane-11,13-dione], the MIC in the assay with S. aureus MP-12 is over 32 µg/mL; in the assay on E. coli MP-4 it was under 4 µg/mL; in the assay with K. pneumoniae MP-546, 4 to 32 µg/mL (≈ 6.39 to 51.1 µM); against P. aeruginosa MP-3, over 32 µg/mL; in the assay with A. baumannii MP-15, over 32 µg/mL.
As for `CO[C@]1(C)C[C@@H](C)CN(C)[C@H]([C@H]2CCN(C(C)C)C2)COC(=O)C(C)(C)C(=O)[C@H](C)[C@H]1O[C@@H]1O[C@H](C)C[C@H](N(C)C)[C@H]1O` [Compound 11, (3R,6R,8R,9R,10R)-9-(((2S,3R,4S,6R)-4-(Dimethylamino)-3-hydroxy-6-methyltetrahydro-2H-pyran-2-yl)oxy)-3-((S)-1-isopropylpyrrolidin-3-yl)-8-methoxy-4,6,8,10,12,12-hexamethyl-1-oxa-4-azacyclotridecane-11,13-dione], the MIC against S. aureus MP-12 was 4 to 32 µg/mL (≈ 6.54 to 52.3 µM); with E. coli MP-4 it was under 4 µg/mL; in the assay on K. pneumoniae MP-546, under 4 µg/mL; against P. aeruginosa MP-3 it was over 32 µg/mL; with A. baumannii MP-15 it was over 32 µg/mL.
Consider `CCCN1C[C@H](C)C[C@@](C)(OC)[C@H](O[C@@H]2O[C@H](C)C[C@H](N(C)C)[C@H]2O)[C@@H](C)C(=O)C(C)(C)C(=O)OC[C@H]1C1CN(C(=O)CN(C)C)C1` [Compound 68, (3R,6R,8R,9R,10R)-9-(((2S,3R,4S,6R)-4-(dimethylamino)-3-hydroxy-6-methyltetrahydro-2H-pyran-2-yl)oxy)-3-(1-(dimethylglycyl)azetidin-3-yl)-8-methoxy-6,8,10,12,12-pentamethyl-4-propyl-1-oxa-4-azacyclotridecane-11,13-dione], for which the MIC against S. aureus MP-12 was 4 to 32 µg/mL (≈ 5.98 to 47.8 µM); in the assay on E. coli MP-4, under 4 µg/mL; in the assay with K. pneumoniae MP-546, 4 to 32 µg/mL (≈ 5.98 to 47.8 µM); with P. aeruginosa MP-3, over 32 µg/mL; in the assay with A. baumannii MP-15, over 32 µg/mL.
In the case of `CO[C@]1(C)C[C@@H](C)CN(C)[C@H](c2ccc(-c3cccnc3)cc2)COC(=O)C(C)(C)C(=O)[C@H](C)[C@@H]1O[C@@H]1O[C@@H](C)C[C@H](N(C)C)[C@H]1O` [Compound 188], the MIC in the assay with S. aureus MP-12, with E. coli MP-4, in the assay on K. pneumoniae MP-546, with P. aeruginosa MP-3 and in the assay on A. baumannii MP-15 was over 32 µg/mL in each case.
With `CO[C@]1(C)C[C@@H](C)CN(C)[C@H](C2CNC2)COC(=O)C(C)(C)C(=O)[C@H](C)[C@H]1O[C@@H]1O[C@H](C)C[C@H](N(C)C)[C@H]1O` [Compound 134, (3R,6R,8R,9R,10R)-3-(azetidin-3-yl)-9-(((2S,3R,4S,6R)-4-(dimethylamino)-3-hydroxy-6-methyltetrahydro-2H-pyran-2-yl)oxy)-8-methoxy-4,6,8,10,12,12-hexamethyl-1-oxa-4-azacyclotridecane-11,13-dione], the MIC with S. aureus MP-12 is over 32 µg/mL; in the assay with E. coli MP-4 it was under 4 µg/mL; against K. pneumoniae MP-546, 4 to 32 µg/mL (≈ 7.2 to 57.6 µM); in the assay on P. aeruginosa MP-3, over 32 µg/mL; in the assay on A. baumannii MP-15 it was over 32 µg/mL.
With `CO[C@]1(C)C[C@@H](C)CN(C)[C@H]([C@H]2CCCN(C(=O)CN(C)C)C2)COC(=O)C(C)(C)C(=O)[C@H](C)[C@H]1O[C@@H]1O[C@H](C)C[C@H](N(C)C)[C@H]1O` [Compound 96, (3R,6R,8R,9R,10R)-9-(((2S,3R,4S,6R)-4-(dimethylamino)-3-hydroxy-6-methyltetrahydro-2H-pyran-2-yl)oxy)-3-((S)-1-(dimethylglycyl)piperidin-3-yl)-8-methoxy-4,6,8,10,12,12-hexamethyl-1-oxa-4-azacyclotridecane-11,13-dione], the MIC in the assay with S. aureus MP-12 was over 32 µg/mL; in the assay on E. coli MP-4 it was 4 to 32 µg/mL (≈ 5.98 to 47.8 µM); in the assay with K. pneumoniae MP-546, over 32 µg/mL; against P. aeruginosa MP-3 it was over 32 µg/mL; in the assay on A. baumannii MP-15, over 32 µg/mL.
On to `CO[C@]1(C)C[C@@H](C)CN(C)[C@H]([C@@H]2CCCN(C)C2)COC(=O)C(C)(C)C(=O)[C@H](C)[C@H]1O[C@@H]1O[C@H](C)C[C@H](N(C)C)[C@H]1O` [Compound 113, (3R,6R,8R,9R,10R)-9-(((2S,3R,4S,6R)-4-(dimethylamino)-3-hydroxy-6-methyltetrahydro-2H-pyran-2-yl)oxy)-8-methoxy-4,6,8,10,12,12-hexamethyl-3-((R)-1-methylpiperidin-3-yl)-1-oxa-4-azacyclotridecane-11,13-dione], for which the MIC was over 32 µg/mL in the assay with S. aureus MP-12; 4 to 32 µg/mL (≈ 6.69 to 53.5 µM) in the assay on E. coli MP-4; over 32 µg/mL in the assay on K. pneumoniae MP-546; over 32 µg/mL against P. aeruginosa MP-3; over 32 µg/mL in the assay on A. baumannii MP-15.

For the origin of these results see patent publication US20220177508A1, “C10-Cyclic Substituted 13-Membered Macrolides and Uses Thereof” (Zikani Therapeutics, Inc., priority 2018, published 2022).
